Reference: PMC11189555, “Aryl amino acetamides prevent Plasmodium falciparum ring development via targeting the lipid-transfer protein PfSTART1” (Nature Communications, 2024)
Several values for one entry are separate records, joined by “and”; a condition that tells them apart may be missing. Equal entries are not always repeated.

Tested on: 3D7 P. falciparum parasites
Test: Growth inhibition assay (72 h, LDH activity)
Type: cell-based, Plasmodium falciparum
Experimental: Parasite growth assays with inhibitory compounds were performed as per[11] and are fully described in the Supplementary Information. […]
Growth inhibition assays. Synchronised ring-stage parasites (0.3-0.6% parasitemia, 2% haematocrit) were grown for 72 h in a serial-dilution of the compound under […]
and compound 4. Note that M-833 was first purchased from MolPort (MolPort -002-267-916) then made in-house at WEHI: the differences observed in EC50s across experiments are attributed to the different batches of M -833. For some experiments, 0, 0.25 or 2.5 mM of glucosamine (GlcN) was also added. Experiments were set up in technical duplicates or triplicates. Following a freeze -thaw cycle, lactate dehydrogenase (LDH) activity was assessed as an indicator of parasite growt h 5. 30 μL of parasite culture was incubated for 30 min in the dark with 75 μL Malstat mixture (0.1 M Tris pH 9.0, 20 g/L lactic acid, pH 7.5, 0.2% Triton-X100, 0.5 g/L acetylpyridine adenine dinucleotide (APAD, Sigma), 200 μg/mL nitroblue tetrazolium (NBT; Sigma), 1 μg/mL phenozine ethosulfate (PES; Sigma)). Absorbance was then measured at 650 nm, transformed using the formula below, plotted against the logarithm of the concentrations, and a non-linear regression (log(inhibitor) vs. response, variable slope) was calculated using GraphPad Prism to assess the half-inhibitory […]
Growth inhibition % = (1 − average(sample)− average(uRBC)) ∗ 100 […]
The DMSO samples were also used to assess growth of parasite in the presence of 0.25 and 2.5 mM GlcN (normalised by DMSO in 0 mM GlcN). […]

SMILES: Cc1cc(Cl)c(S(=O)(=O)N2CCCC2)cc1OCC(=O)NC1CCCCC1 [M-833]
- sample/DMSO (growth inhibition vs DMSO, LDH) (3D7, 0 mM GlcN, M-833 0.000508053 uM, biological replicates 1-3): 0.3955
- sample/DMSO (growth inhibition vs DMSO, LDH) (3D7, 0 mM GlcN, M-833 0.00152416 uM, biological replicates 1-4): 3.899 and 0.6135 and 1.269 and -5.021
- sample/DMSO (growth inhibition vs DMSO, LDH) (3D7, 0 mM GlcN, M-833 0.00457247 uM, biological replicates 1-4): 7.9783 and -0.1897 and 1.9685 and -5.962
- sample/DMSO (growth inhibition vs DMSO, LDH) (3D7, 0 mM GlcN, M-833 0.0137174 uM, biological replicates 1-4): 6.577 and 0.4933 and 7.305 and 4.539
- sample/DMSO (growth inhibition vs DMSO, LDH) (3D7, 0 mM GlcN, M-833 0.0411523 uM, biological replicates 1-4): 17.0189 and 4.351 and 25.6124 and 2.634
- sample/DMSO (growth inhibition vs DMSO, LDH) (3D7, 0 mM GlcN, M-833 0.123457 uM, biological replicates 1-4): 41.0894 and 22.2426 and 56.6492 and 25.1037
- sample/DMSO (growth inhibition vs DMSO, LDH) (3D7, 0 mM GlcN, M-833 0.37037 uM, biological replicates 1-4): 84.744 and 69.3587 and 86.7673 and 75.1317
- sample/DMSO (growth inhibition vs DMSO, LDH) (3D7, 0 mM GlcN, M-833 1.11111 uM, biological replicates 1-4): 95.6718 and 89.236 and 91.7104 and 88.7258
- sample/DMSO (growth inhibition vs DMSO, LDH) (3D7, 0 mM GlcN, M-833 3.33333 uM, biological replicates 1-4): 96.655 and 91.1143 and 93.0446 and 90.6646
- Growth inhibition assay, NORMALISED (3D7, 0 mM GlcN, conc 13.7174 nM): 13.0746
- Growth inhibition assay, NORMALISED (3D7, 0 mM GlcN, conc 41.1523 nM): 31.4939
- Growth inhibition assay, NORMALISED (3D7, 0 mM GlcN, conc 123.457 nM): 59.8439
- Growth inhibition assay, NORMALISED (3D7, 0 mM GlcN, conc 370.37 nM): 84.7029
- Growth inhibition assay, NORMALISED (3D7, 0 mM GlcN, conc 1111.11 nM): 90.8825
- Growth inhibition assay, NORMALISED (3D7, 0 mM GlcN, conc 3333.33 nM): 92.758
- Growth inhibition assay, NORMALISED (3D7, 0 mM GlcN, conc 10000 nM): 93.376
- sample/DMSO (growth inhibition vs DMSO, LDH) (3D7, 0.25 mM GlcN, M-833 0.000508053 uM, biological replicates 1-3): 3.472 and 0.2055
- sample/DMSO (growth inhibition vs DMSO, LDH) (3D7, 0.25 mM GlcN, M-833 0.00152416 uM, biological replicates 1-4): 7.594 and 1.781 and -0.4107 and -3.683
- sample/DMSO (growth inhibition vs DMSO, LDH) (3D7, 0.25 mM GlcN, M-833 0.00457247 uM, biological replicates 1-4): 11.6683 and 13.0152 and -3.5254 and -4.48
- sample/DMSO (growth inhibition vs DMSO, LDH) (3D7, 0.25 mM GlcN, M-833 0.0137174 uM, biological replicates 1-4): 18.8525 and 10.2866 and 0.5749 and 7.343
- sample/DMSO (growth inhibition vs DMSO, LDH) (3D7, 0.25 mM GlcN, M-833 0.0411523 uM, biological replicates 1-4): 37.8978 and 20.6188 and 3.974 and 3.155
- sample/DMSO (growth inhibition vs DMSO, LDH) (3D7, 0.25 mM GlcN, M-833 0.123457 uM, biological replicates 1-4): 60.1495 and 44.3886 and 19.2191 and 24.7586
- sample/DMSO (growth inhibition vs DMSO, LDH) (3D7, 0.25 mM GlcN, M-833 0.37037 uM, biological replicates 1-4): 90.2604 and 84.0393 and 70.7607 and 72.7038
- sample/DMSO (growth inhibition vs DMSO, LDH) (3D7, 0.25 mM GlcN, M-833 1.11111 uM, biological replicates 1-4): 94.6962 and 95.3762 and 89.746 and 88.7379
- sample/DMSO (growth inhibition vs DMSO, LDH) (3D7, 0.25 mM GlcN, M-833 3.33333 uM, biological replicates 1-4): 94.1176 and 95.9927 and 91.6288 and 90.366
- Growth inhibition assay, NORMALISED (3D7, 0.25 mM GlcN, conc 123.457 nM): 65.6199 and 63.1151
- Growth inhibition assay, NORMALISED (3D7, 0.25 mM GlcN, conc 370.37 nM): 87.6963 and 91.9897
- Growth inhibition assay, NORMALISED (3D7, 0.25 mM GlcN, conc 1111.11 nM): 93.5707 and 96.2430
- Growth inhibition assay, NORMALISED (3D7, 0.25 mM GlcN, conc 3333.33 nM): 94.9648 and 97.4583
- Growth inhibition assay, NORMALISED (3D7, 0.25 mM GlcN, conc 10000 nM): 98.3055 and 95.804
- NORMALISED (growth inhibition, LDH absorbance vs DMSO and uRBC) (3D7, 2.5 mM GlcN, M833 dilution point 1 of 10 (starting concentration 10 uM)): 96.8148 and 98.7231 and 95.2456
- NORMALISED (growth inhibition, LDH absorbance vs DMSO and uRBC) (3D7, 2.5 mM GlcN, M833 dilution point 2 of 10 from 10 uM start): 95.7251 and 93.6187 and 97.3100
- NORMALISED (growth inhibition, LDH absorbance vs DMSO and uRBC) (3D7, 2.5 mM GlcN, M833 dilution point 3 of 10 from 10 uM start): 96.9824 and 90.9335 and 96.6034
- NORMALISED (growth inhibition, LDH absorbance vs DMSO and uRBC) (3D7, 2.5 mM GlcN, M833 dilution point 4 of 10 from 10 uM start): 93.881 and 84.8839 and 92.4066
- NORMALISED (growth inhibition, LDH absorbance vs DMSO and uRBC) (3D7, 2.5 mM GlcN, M833 dilution point 5 of 10 from 10 uM start): 83.487 and 63.7656 and 70.6904
- sample/DMSO (growth inhibition vs DMSO, LDH) (3D7, 2.5 mM GlcN, M-833 0.000508053 uM, biological replicates 1-3): -0.6607
- sample/DMSO (growth inhibition vs DMSO, LDH) (3D7, 2.5 mM GlcN, M-833 0.00152416 uM, biological replicates 1-4): -1.11 and -0.7648 and -1.644 and -5.451
- sample/DMSO (growth inhibition vs DMSO, LDH) (3D7, 2.5 mM GlcN, M-833 0.00457247 uM, biological replicates 1-4): 2.378 and 5.032 and -5.671 and -4.085
- sample/DMSO (growth inhibition vs DMSO, LDH) (3D7, 2.5 mM GlcN, M-833 0.0137174 uM, biological replicates 1-4): 17.2304 and 4.206 and -1.672 and 24.2341
- sample/DMSO (growth inhibition vs DMSO, LDH) (3D7, 2.5 mM GlcN, M-833 0.0411523 uM, biological replicates 1-4): 38.9006 and 17.4059 and 1.86 and 27.5421
- sample/DMSO (growth inhibition vs DMSO, LDH) (3D7, 2.5 mM GlcN, M-833 0.123457 uM, biological replicates 1-4): 56.4218 and 44.1266 and 25.1289 and 54.0055
